From ChEMBL document CHEMBL4808181, “Hydrophobic Pocket Occupation Design of Difluoro-Biphenyl-Diarylpyrimidines as Non-Nucleoside HIV-1 Reverse Transcriptase Inhibitors: from N-Alkylation to Methyl Hopping on the Pyrimidine Ring” (J Med Chem, 2021)
pEC50, pIC50: −log10 of the molar value.

Legend:
[1] = Metabolic stability in human liver microsomes; type: ADME, Microsome
[2] = target: Human immunodeficiency virus type 1 reverse transcriptase (Human immunodeficiency virus 1, UniProt Q72547); experiment: Inhibition of recombinant wild type p66/p51 HIV1 reverse transcriptase incubated for 40 mins by picogreen dye-based spectrofluorometric analysis
[3] = Inhibition of HIV-1 p66/p51 reverse transcriptase E138K mutant incubated for 40 mins by picogreen dye-based spectrofluorometric analysis; set-up: species or system Human immunodeficiency virus 1
[4] = Selectivity index, ratio of CC50 for cytotoxicity against human MT-4 cells to EC50 for inhibition of HIV-1 p66/51 reverse transcriptase Y181C mutant; type: toxicity, cell-based; conditions: read-out: Ratio CC50/EC50
[5] = system: Human immunodeficiency virus 1; experiment: Antiviral activity against HIV-1 infected in human MT-4 cells assessed as reduction in virus-induced cytopathic effect incubated for 5 days by MTT assay; type: functional, organism-based; conditions: Human immunodeficiency virus 1, MT4, 120 h
[6] = Selectivity index, ratio of CC50 for cytotoxicity against human MT-4 cells to EC50 for inhibition of HIV-1 p66/51 reverse transcriptase K103N mutant; type: toxicity, cell-based; conditions: read-out: Ratio CC50/EC50
[7] = Selectivity index, ratio of CC50 for human MT-4 cells to EC50 for HIV-1 infected in MT-4 cells; type: toxicity, cell-based; conditions: read-out: Ratio CC50/EC50
[8] = target: Human immunodeficiency virus type 1 reverse transcriptase (Human immunodeficiency virus 1, UniProt Q72547, Y181C); experiment: Inhibition of HIV-1 p66/p51 reverse transcriptase Y181C mutant incubated for 40 mins by picogreen dye-based spectrofluorometric analysis
[9] = target: Human immunodeficiency virus type 1 reverse transcriptase (Human immunodeficiency virus 1, UniProt Q72547, K103N); experiment: Inhibition of HIV-1 p66/p51 reverse transcriptase K103N mutant incubated for 40 mins by picogreen dye-based spectrofluorometric analysis
[10] = Inhibition of HIV-1 p66/p51 reverse transcriptase Y188L mutant incubated for 40 mins by picogreen dye-based spectrofluorometric analysis; set-up: species or system Human immunodeficiency virus 1
[11] = target: Human immunodeficiency virus type 1 reverse transcriptase (Human immunodeficiency virus 1, UniProt Q72547, L100I); experiment: Inhibition of HIV-1 p66/p51 reverse transcriptase L100I mutant incubated for 40 mins by picogreen dye-based spectrofluorometric analysis
[12] = Selectivity index, ratio of CC50 for cytotoxicity against human MT-4 cells to EC50 for inhibition of HIV-1 p66/51 reverse transcriptase L100I mutant; type: toxicity, cell-based; conditions: read-out: Ratio CC50/EC50
[13] = Selectivity index, ratio of CC50 for cytotoxicity against human MT-4 cells to EC50 for inhibition of HIV-1 p66/51 reverse transcriptase E138K mutant; type: toxicity, cell-based; conditions: read-out: Ratio CC50/EC50
[14] = Selectivity index, ratio of CC50 for cytotoxicity against human MT-4 cells to EC50 for inhibition of HIV-1 p66/51 reverse transcriptase Y188L mutant; type: toxicity, cell-based; conditions: read-out: Ratio CC50/EC50
[15] = Cytotoxicity against in human MT-4 cells after 5 days by MTT assay; type: cell-based, MT4; conditions: time 5 day
[16] = Metabolic stability in mouse liver microsomes; type: ADME, Microsome
[17] = Metabolic stability in mouse liver microsomes assessed as half life; type: ADME, Microsome
[18] = Metabolic stability in mouse liver microsomes assessed as intrinsic clearance per mg protein; type: ADME, Microsome
[19] = Toxicity in healthy female mouse assessed as brain damage at 2 g/kg, ig monitored for 2 weeks by HE staining based assay; type: tissue-based; conditions: in vivo, po, 2000 mg/kg, 336 h
[20] = Acute toxicity in healthy mouse assessed as death at 2 g/kg, ig; conditions: in vivo, po, 2000 mg/kg
[21] = Acute toxicity in pregnant mouse assessed as offspring survival rate at 2 g/kg, ig; conditions: in vivo, po, 2000 mg/kg
[22] = Toxicity in pregnant mouse assessed as brain damage at 2 g/kg, ig monitored for 2 weeks by HE staining based assay; type: tissue-based; conditions: in vivo, po, 2000 mg/kg, 336 h
[23] = MRTinfinity in Wistar rat at 1 mg/kg, iv; type: ADME, organism-based; conditions: in vivo
[24] = Metabolic stability in rat liver microsomes; type: ADME, Microsome
[25] = Toxicity in healthy female mouse assessed as spleen damage at 2 g/kg, ig monitored for 2 weeks by HE staining based assay; type: tissue-based; conditions: in vivo, po, 2000 mg/kg, 336 h
[26] = Toxicity in pregnant mouse assessed as liver damage at 2 g/kg, ig monitored for 2 weeks by HE staining based assay; type: tissue-based; conditions: in vivo, po, 2000 mg/kg, 336 h
[27] = Toxicity in healthy female mouse assessed as liver damage at 2 g/kg, ig monitored for 2 weeks by HE staining based assay; type: tissue-based; conditions: in vivo, po, 2000 mg/kg, 336 h
[28] = AUCinfinity in Wistar rat at 1 mg/kg, iv; type: ADME, organism-based; set-up: route intravenous, time infinity, dose 1 mg/kg; conditions: in vivo
[29] = AUC in Wistar rat at 1 mg/kg, iv; type: ADME, organism-based; set-up: dose 1 mg/kg; conditions: in vivo
[30] = Toxicity in healthy female mouse assessed as kidney damage at 2 g/kg, ig monitored for 2 weeks by HE staining based assay; type: tissue-based; conditions: in vivo, po, 2000 mg/kg, 336 h
[31] = Acute toxicity in pregnant mouse assessed as behavioral abnormalities at 2 g/kg, ig measured for 2 weeks; conditions: in vivo, po, 2000 mg/kg, 336 h
[32] = Tmax in Wistar rat at 5 mg/kg, po; type: ADME, organism-based; conditions: in vivo
[33] = Acute toxicity in pregnant mouse assessed as increase in body weight at 2 g/kg, ig; conditions: in vivo, po, 2000 mg/kg
[34] = Toxicity in pregnant mouse assessed as kidney damage at 2 g/kg, ig monitored for 2 weeks by HE staining based assay; type: tissue-based; conditions: in vivo, po, 2000 mg/kg, 336 h
[35] = Toxicity in pregnant mouse assessed as spleen damage at 2 g/kg, ig monitored for 2 weeks by HE staining based assay; type: tissue-based; conditions: in vivo, po, 2000 mg/kg, 336 h
[36] = Toxicity in pregnant mouse assessed as lung damage at 2 g/kg, ig monitored for 2 weeks by HE staining based assay; type: tissue-based; conditions: in vivo, po, 2000 mg/kg, 336 h
[37] = Half life in Wistar rat at 5 mg/kg, po; type: ADME, organism-based; conditions: in vivo
[38] = system: Human immunodeficiency virus type 1 reverse transcriptase (Human immunodeficiency virus 1), Q72547 [K103N]; experiment: Potency index, ratio of NVP EC50 to test compound EC50 for inhibition of HIV-1 p66/p51 reverse transcriptase K103N mutant
[39] = Acute toxicity in pregnant mouse assessed as stillborn fetus at 2 g/kg, ig; conditions: in vivo, po, 2000 mg/kg
[40] = Cmax in Wistar rat at 5 mg/kg, po; type: ADME, organism-based; set-up: route oral, dose 5 mg/kg; conditions: in vivo
[41] = Metabolic stability in human liver microsomes assessed as intrinsic clearance per mg protein; type: ADME, Microsome; conditions: read-out: CLH
[42] = Acute toxicity in healthy female mouse assessed as behavioral abnormalities at 2 g/kg, ig measured for 2 weeks; conditions: in vivo, po, 2000 mg/kg, 336 h
[43] = Toxicity in healthy female mouse assessed as heart damage at 2 g/kg, ig monitored for 2 weeks by HE staining based assay; type: tissue-based; conditions: in vivo, po, 2000 mg/kg, 336 h
[44] = MRTinfinity in Wistar rat at 5 mg/kg, po; type: ADME, organism-based; conditions: in vivo
[45] = AUC in Wistar rat at 5 mg/kg, po; type: ADME, organism-based; set-up: dose 5 mg/kg; conditions: in vivo
[46] = Acute toxicity in pregnant mouse assessed as death at 2 g/kg, ig; conditions: in vivo, po, 2000 mg/kg
[47] = Toxicity in healthy female mouse assessed as lung damage at 2 g/kg, ig monitored for 2 weeks by HE staining based assay; type: tissue-based; conditions: in vivo, po, 2000 mg/kg, 336 h
[48] = AUCinfinity in Wistar rat at 5 mg/kg, po; type: ADME, organism-based; set-up: route oral, time infinity, dose 5 mg/kg; conditions: in vivo
[49] = Metabolic stability in rat liver microsomes assessed as intrinsic clearance per mg protein; type: ADME, Microsome
[50] = system: Human immunodeficiency virus type 1 reverse transcriptase (Human immunodeficiency virus 1), Q72547 [K103N]; experiment: Potency index, ratio of EFV EC50 to test compound EC50 for inhibition of HIV-1 p66/p51 reverse transcriptase K103N mutant
[51] = Metabolic stability in rat liver microsomes assessed as half life; type: ADME, Microsome
[52] = Acute toxicity in healthy female mouse assessed as increase in body weight at 2 g/kg, ig; conditions: in vivo, po, 2000 mg/kg
[53] = Toxicity in pregnant mouse assessed as heart damage at 2 g/kg, ig monitored for 2 weeks by HE staining based assay; type: tissue-based; conditions: in vivo, po, 2000 mg/kg, 336 h
[54] = Half life in Wistar rat at 1 mg/kg, iv; type: ADME, organism-based; conditions: in vivo
[55] = Acute toxicity in pregnant mouse assessed as abortion at 2 g/kg, ig; conditions: in vivo, po, 2000 mg/kg

`Cc1cc(-c2ccc(C#N)cc2)cc(C)c1Nc1ccnc(Nc2ccc(C#N)cc2)n1` gave a k el [1] of 0.000783 s⁻¹.

`CCCN(c1ccnc(Nc2ccc(C#N)cc2)n1)c1c(F)cc(-c2ccc(C#N)cc2)cc1F` showed a pIC50 [2] of 7.39, a pEC50 [3] of 7.46 and a selectivity ratio [4] of 3090. It also gave a pEC50 [5] of 7.72, a selectivity ratio [6] of 1960 and a selectivity ratio [7] of 11300. It also gave a pEC50 [8] of 7.16, a pEC50 [9] of 6.97 and a pEC50 [10] of 5.73. The pEC50 [11] was 7.02, the selectivity ratio [12] was 2240 and the selectivity ratio [13] was 6090. It also gave a selectivity ratio [14] of 114 and a CC50 at 120 h [15] of 212000 nM.

`Cc1cnc(Nc2ccc(C#N)cc2)nc1Nc1c(F)cc(-c2ccc(C#N)cc2)cc1F` showed a k el [16] of 0.00025 s⁻¹, a pIC50 [2] of 7.89 and a k el [1] of 8.33e-05 s⁻¹. The t1/2 [17] was 0.768 h, the pEC50 [3] was 8.08 and the CLH [18] was 30.1 µL/min. For the same compound, the selectivity ratio [4] was over 25500, the Activity [19] was “Non-Toxic” and the Activity [20] was “Non-Toxic”. The Activity [21] was “Non-Toxic”, the pEC50 [5] was 9.00 and the Activity [22] was “Non-Toxic”. The MRT inf [23] was 0.86 h, the k el [24] was 0.000237 s⁻¹ and the selectivity ratio [6] was over 53200. For the same compound, the Activity [25] was “Non-Toxic”, the Activity [26] was “Non-Toxic” and the Activity [27] was “Non-Toxic”. It also gave a selectivity ratio [7] of over 208000, an AUC(0-inf) [28] of 1090 ng·h/mL and an AUC [29] of 1080 ng·h/mL. For the same compound, the Activity [30] was “Non-Toxic”, the Activity [31] was “Non-Toxic” and the Tmax [32] was 0.67 h. The Activity [33] was “Toxic”, the Activity [34] was “Non-Toxic” and the Activity [35] was “Non-Toxic”. For the same compound, the Activity [36] was “Non-Toxic”, the half-life [37] was 2.13 h and the pEC50 [8] was 7.95. For the same compound, the Ratio EC50 [38] was 17, the pEC50 [9] was 8.27 and the Activity [39] was “Non-Toxic”. For the same compound, the Cmax [40] was 38.4 ng/mL, the microsomal CLint [41] was 5 µL/min/mg and the Activity [42] was “Non-Toxic”. For the same compound, the Activity [43] was “Non-Toxic”, the pEC50 [11] was 7.79 and the MRT inf [44] was 3.5 h. For the same compound, the AUC [45] was 115 ng·h/mL, the Activity [46] was “Non-Toxic” and the Activity [47] was “Non-Toxic”. It also gave an AUC(0-inf) [48] of 130 ng·h/mL, a selectivity ratio [12] of over 17500 and a CLH [49] of 28.4 µL/min. For the same compound, the selectivity ratio [13] was over 34200, the Ratio EC50 [50] was 17 and the t1/2 [51] was 0.815 h. For the same compound, the Activity [52] was “Toxic”, the Activity [53] was “Non-Toxic” and the half-life [54] was 1.18 h. For the same compound, the CC50 at 120 h [15] was over 285000 nM and the Activity [55] was “Non-Toxic”.

In the case of `COCN(c1ccnc(Nc2ccc(C#N)cc2)n1)c1c(F)cc(-c2ccc(C#N)cc2)cc1F`, the pIC50 [2] was 7.60, the pEC50 [3] was 7.46 and the selectivity ratio [4] was 4770. For the same compound, the pEC50 [5] was 8.22, the selectivity ratio [6] was 4630 and the selectivity ratio [7] was 42800. The pEC50 [8] was 7.30, the pEC50 [9] was 7.29 and the pEC50 [10] was 6.09. It also gave a pEC50 [11] of 7.44, a selectivity ratio [12] of 6510 and a selectivity ratio [13] of 6780. The selectivity ratio [14] was 294 and the CC50 at 120 h [15] was 238000 nM.
